Measurements published in patent US20220089540A1 (Board of Trustees of Michigan State University, priority 2019, published 2022).
Several values for one entry are separate records, joined by “and”; a condition that tells them apart may be missing. Equal values may be shown once.

Legend:
[1] = system: inducible nitric oxide synthase (iNOS); experiment: iNOS suppression / NO assay in LPS-stimulated macrophages or RAW264.7 cells (Griess reaction); format: cell-based, mouse; details: Mus musculus; for activity at 0.1 µM / activity at 0.3 µM: RAW264.7, 24 h, percent of the LPS-stimulated control, lower is better, Table 6; for activity at 0.1 µM: at 100 nM; for activity at 0.3 µM: at 300 nM, read-out: iNOS suppression
Method: Macrophages or RAW264.7 like-cells were treated with various concentrations of rexinoids and stimulated with lipopolysaccaride (LPS) to activate inducible nitric oxide synthase (iNOS) to produce nitric oxide. This in vitro iNOS assay was rapid, reproducible, quantitative and predictive. Nitric oxide is implicated in the apoptosis of cancer cells via regulation of RXRs. There is a tight correlation between the % reduction of iNOS and efficacy in preclinical lung cancer models. Lower numbers indicate higher efficacy.
RAW264.7 cells were incubated with 300 nM rexinoids and stimulated with 1-2 ng/ml lipopolysaccaride (LPS) for 24 hours to activate inducible nitric oxide synthase (iNOS) to produce nitric oxide. Nitric oxide released into the media was measured by the Griess reaction.
Also, for Table 6, the iNOS suppression is the percent of the LPS-stimulated control where the compounds were measured at 100 nM or 300 nM.
Macrophages or RAW264.7 cells were treated with various concentrations of rexinoids listed in Table 7 and stimulated with lipopolysaccaride (LPS) to activate inducible nitric oxide synthase (iNOS) to produce nitric oxide. Nitric oxide (NO) is implicated in the apoptosis of cancer cells via regulation of RXRs. There is a tight correlation between the % reduction of iNOS and efficacy in preclinical lung cancer models. The in vitro iNOS assay is rapid, reproducible, quantitative and predictive, as NO production is measured in culture medium using the Griess reaction. Values are either presented as % inhibition or IC50 values.

Lung Cancer Model = experiment: Lung cancer model rank order; format: in vivo
[2] = Triglycerides in rodent models; format: in vivo
SREBP = SREBP induction in human liver (HepG2) cells, RT-PCR; format: cell-based; set-up: key to SREBP: fold induction vs DMSO control; details: for SREBP activation: fold induction compared to DMSO, several values per cell, Table 6
Method: The SREBP transcription factor is involved in triglyceride synthesis, and its activation correlates with increased triglycerides in vivo. […] Lower numbers indicate better safety. […] Lower numbers indicate better safety. Also, for Table 6, SREBP activation was measured as fold induction compared to DMSO, where a lower value indicates the compound is an improvement over a control.

LogD at pH 7.4 = format: physicochemical; details: pH 7.4 buffer
Method: Note that for Table 6, Log D is the distribution constant, which is descriptor of the lipophilicity of a molecule. This was determined using an aqueous phase that was adjusted to pH 7.4 using a buffer.

human RXRa = target: T1, human RXRa (Homo sapiens, UniProt P19793); experiment: RXR activation luciferase reporter assay; format: cell-based; details: for EC50: Table 6, read-out: RXRα activation (EC50); for RXR assay: luciferase, Control 0, higher numbers indicate higher potency
T1 sequence (P19793 1-462): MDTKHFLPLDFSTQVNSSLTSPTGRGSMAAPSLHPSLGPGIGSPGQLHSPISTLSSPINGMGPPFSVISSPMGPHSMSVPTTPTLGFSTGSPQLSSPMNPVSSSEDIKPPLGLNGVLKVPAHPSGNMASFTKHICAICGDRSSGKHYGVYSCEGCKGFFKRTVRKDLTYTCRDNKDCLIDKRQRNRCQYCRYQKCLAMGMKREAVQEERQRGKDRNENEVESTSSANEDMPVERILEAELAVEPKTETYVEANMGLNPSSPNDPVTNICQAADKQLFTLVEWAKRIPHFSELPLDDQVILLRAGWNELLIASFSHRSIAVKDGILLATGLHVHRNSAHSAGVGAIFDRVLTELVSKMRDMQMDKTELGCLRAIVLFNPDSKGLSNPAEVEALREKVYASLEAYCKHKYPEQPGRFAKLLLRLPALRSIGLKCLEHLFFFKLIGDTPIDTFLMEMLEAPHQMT
Text: Rexinoids are agonists for the retinoid X receptors (RXRs). In this assay, the human RXRa promoter is functionally linked to a luciferase reporter gene. Changes in luciferase expression served as a sensitive surrogate measure of RXR activity. Higher numbers indicate higher potency.

PD-L1 = PD-L1 induction in macrophages or RAW264.7 cells with cancer cell conditioned media (flow cytometry); format: cell-based, mouse; details: 100 nM; Table 2; Control 39.8; higher numbers indicate better upregulation
Method: RAW 264.7 mouse macrophage-like (ATCC) and E18-14C-27 (Wu et al., Cancer Res. 62, 6376-6380 (2002)) cells were cultured in DMEM supplemented with 10% fetal bovine serum (FBS). RAW 264.7 cells were cultured at 50000/well in a 6 well plate for 24 hours to determine PD-L1 levels. E18-14C-27 cells were cultured for 72 hours in the presence of LG268 for protein levels. Conditioned media was collected from E18-14C-27 at 60-70% confluence for 24 hours; media was then collected and centrifuged at 900 rpm for 5 minutes to eliminate any cell debris.
For PD-L1 staining, RAW 264.7 cells were plated at 25000 cells/ml in 6 well plates for 24 hours before adding conditioned media from E18-14C-27 and LG268. RAW 264.7 cells were cultured for additional 24 hours with E18-14C-27 conditioned media and LG268. […] THP-1 cells were stained and analyzed for the levels of PD-L1 following the same protocol.
Inhibitory receptors on lymphocytes such as PD-1 (programmed cell death protein 1) are important immune checkpoints that protect against autoimmunity as the interaction between PD-L1 (ligand) and the PD-1 receptor expressed on immune cells suppresses T cell activity. Immuno-oncology is revolutionizing cancer treatment, and enormous research efforts are ongoing to identify drugs that upregulate PD-L1 so that they can be combined with checkpoint inhibitors to boost efficacy. Macrophages or RAW264.7 cells are treated with conditioned media from cancer cells and rexinoids, and PD-L1 expression determined by flow cytometry. Higher numbers indicate better upregulation of PD-LI.
Using methods described herein, macrophages or RAW264.7 cells were treated with selected rexinoids and with conditioned media from cancer cells. Structures of the rexinoids are shown below.
PD-L1 expression was determined by flow cytometry.

[3] = Toxicity in A/J mice with lung tumors fed rexinoids plus carboplatin and paclitaxel; format: in vivo; details: 100 mg/kg diet, 7 weeks
Method: A/J mice with lung tumors (detected by ultrasound) were fed rexinoids in their diets (at 100 mg/kg diet) and injected twice every other week with carboplatin and paclitaxel.

Triglyccerides (Rodent Models) [2] | Compound | activity at 0.1 µM [1] [%] | activity at 0.3 µM [1] [%] | SREBP activation (SREBP) | logD (LogD at pH 7.4) | other results
Modest elevation in female rats | CCN(c1ccc(OCC(C)C)c(C(C)C)c1)c1ccc(C(=O)O)cn1 [reference compound] | – | – | – | – | EC50 (human RXRa): 50 to 200 nM
No elevation (mice) | Cc1cc2c(cc1-n1c(C(F)(F)F)nc3cc(C(=O)O)ccc31)C(C)(C)CCC2(C)C [reference compound] | – | – | – | – | EC50 (human RXRa): 1 to 25 nM
Elevated (mice) | CCN(c1ccc2c(c1)C(C)(C)CCC2(C)C)c1ccc(C(=O)O)cn1 [reference compound] | – | – | – | – | EC50 (human RXRa): 1 to 25 nM
Elevated | CC(/C=C/[C@@H]1C[C@]1(C)c1cc2c(cc1C)C(C)(C)CCC2(C)C)=C\C(=O)O [reference compound] | 15 to 20 | – | ~3.6 fold induction | – | EC50 (human RXRa): 1 to 25 nM; Lung Cancer Model Rank Order (Lung Cancer Model): 2

Second part, the compound before the results:

Compound | Triglyccerides (Rodent Models) [2] | activity at 0.1 µM [1] [%] | activity at 0.3 µM [1] [%] | SREBP activation (SREBP) | logD (LogD at pH 7.4) | other results
C/C(=C/C=C/C(C)=C/C(=O)O)c1cc(C(C)(C)C)cc(C(C)(C)C)c1OCC(F)F [drawing 96] | No Elevation | 30 to 35 | – | – | – | Lung Cancer Model Rank Order (Lung Cancer Model): 4
CCN(c1ccc(C(=O)O)cc1)c1cc(C(C)C)c(OCC(C)C)cc1C [drawing 120] | – | – | 86 | 1.3 fold induction | 3.8 | –
Cc1cc2c(cc1C1(c3ncc(C(=O)O)cn3)CC1)C(C)(C)CCC2(C)C [drawing 98, reference compound] | Modest Elevation | ~25 | – | ~1.25 fold induction | – | EC50 (human RXRa): 25 to 50 nM; Lung Cancer Model Rank Order (Lung Cancer Model): 3
Cc1cc2c(cc1C1(c3ccc(C(=O)O)cn3)CC1)C(C)(C)CCC2(C)C [drawing 95, reference compound] | Elevated | 15 to 20 | – | 3.9 fold induction and 3.1 fold induction and 3.2 fold induction | – | Lung Cancer Model Rank Order (Lung Cancer Model): 1
CCN(c1cc(C(F)(F)F)cc(C(F)(F)F)c1)c1ccc(C(=O)O)cn1 [drawing 119] | – | 24 | 15 | 0.95 fold induction and 1.2 fold induction | 1.5 | –
CCN(c1cc(C(C)(C)C)cc(C(C)(C)C)c1)c1ccc(C(=O)O)cn1 [drawing 105] | – | – | 30 | 1.6 fold induction and 2.85 fold induction and 3.1 fold induction | 2.9 | –
C=C(c1ccc(C(=O)O)cc1)c1cc(C(C)C)c(OCC)cc1C [drawing 115] | – | – | 45 | 1.4 fold induction | 2.6 | –
CCCN(c1cc(C(C)(C)C)cc(C(C)(C)C)c1)c1ccc(C(=O)O)cn1 [drawing 117] | – | 22 | 13 | 1.95 fold induction and 2.9 fold induction | 3.4 | –
CCN(c1ccc(C(=O)O)cc1)c1cc(C(C)(C)C)cc(C(C)(C)C)c1 [drawing 104] | – | – | 43 | 1.8 fold induction and 2.5 fold induction | 4 | –
C=C(c1ccc(C(=O)O)cc1)c1cc(C(C)C)c(OC(C)C)cc1C [drawing 114] | – | – | 40 | 4.7 fold induction | 3.1 | –
CCN(c1cc(C(C)(C)C)cc(C(C)(C)C)c1)c1ncc(C(=O)O)cn1 [drawing 106] | – | – | 55 | 3.5 fold induction and 1.8 fold induction | 2.3 | –
CC(C)CN(c1cc(C(C)(C)C)cc(C(C)(C)C)c1)c1ccc(C(=O)O)cn1 [Compound 18, 6-[(3,5-di-tert-butylphenyl)(2-methylpropyl)amino]pyridine-3-carboxylic Acid] | – | – | – | – | – | PD-L1 (PD-L1): 58.5; activity at 0.125 µM ([1]; RAW264.7, 125 nM, Control 100, lower numbers indicate higher efficacy, read-out: NO Assay): 52%; activity at 0.5 µM ([1]; RAW264.7, 500 nM, Control 100, lower numbers indicate higher efficacy, read-out: NO Assay): 11.5%; RXR assay (human RXRa; 100 nM): 12881; RXR assay (human RXRa; 2500 nM): 35605; SREBP (SREBP; 300 nM, Control 1.00, lower numbers indicate better safety, Table 2): 1.52; toxicity findings (liver, triglycerides, cholesterol, fur) [3]: normal coats; toxicity findings (liver, triglycerides, cholesterol, fur) ([3]; listed as MSU-42011): less toxicity than LG100268
CCN(c1ccc(C(=O)O)cc1)c1cc(C(C)(C)C)c(OC)c(C(C)(C)C)c1 [drawing 121] | – | – | 74 | 1.45 fold induction | 3.8 | –
C=C(c1ccc(C(=O)O)cc1)c1cc(C(C)C)c(OCC(C)C)cc1C [drawing 111] | – | – | 40 | 1.2 fold induction | 3.5 | –
